Test results taken from ChEMBL document CHEMBL5729116, “hTRPV1 chemical agents” (2022).

Biological target: Transient receptor potential cation channel subfamily V member 1 (Homo sapiens, UniProt Q8NER1)
Assay: RTX Competition Binding Assay.: Binding studies with [3H]RTX were carried out as follows. The binding assay mixtures were prepared in 1.5 ml centrifuge tubes and consisted of a fixed concentration (approximately 2 nM) of [3H]RTX (37 Ci/mmol specific activity, PerkinElmer Life Sciences), various concentrations of competing ligands, and […] of membranes from induced CHO-hTRPV1 expressing cells (approximately 1-3×10^6 cells) in Dulbecco's phosphate buffered saline (DPBS, with Ca2+ & Mg2+) for a total volume of 350 μl. The assay mix contained bovine serum albumin at a final concentration of 0.25 mg/ml (Cohn fraction V; Sigma-Aldrich, St. Louis, Mo.). In each set of experiments, nonspecific binding were determined in the presence of 200 nM non-radioactive RTX. The binding reaction was initiated by placing the assay mixture in a 37° C. shaking water bath for 60 minutes (−30 rpm). The assay mixture was then chilled on ice for 2-3 min before adding 100 μl of α1-acid glycoprotein (2 mg/ml; Sigma-Aldrich) and mixed thoroughly. The tubes were kept on ice for an additional 10 min. The bound and free ligands were then separated by centrifugation (12,200 rpm for 15 minutes) in a Beckman Coulter centrifuge Allegra 21R. 200 μl of supernatant was collected for determination of free ligand. The remainder was removed by aspiration.

Sequence of Transient receptor potential cation channel subfamily V member 1 (Q8NER1 whole entry): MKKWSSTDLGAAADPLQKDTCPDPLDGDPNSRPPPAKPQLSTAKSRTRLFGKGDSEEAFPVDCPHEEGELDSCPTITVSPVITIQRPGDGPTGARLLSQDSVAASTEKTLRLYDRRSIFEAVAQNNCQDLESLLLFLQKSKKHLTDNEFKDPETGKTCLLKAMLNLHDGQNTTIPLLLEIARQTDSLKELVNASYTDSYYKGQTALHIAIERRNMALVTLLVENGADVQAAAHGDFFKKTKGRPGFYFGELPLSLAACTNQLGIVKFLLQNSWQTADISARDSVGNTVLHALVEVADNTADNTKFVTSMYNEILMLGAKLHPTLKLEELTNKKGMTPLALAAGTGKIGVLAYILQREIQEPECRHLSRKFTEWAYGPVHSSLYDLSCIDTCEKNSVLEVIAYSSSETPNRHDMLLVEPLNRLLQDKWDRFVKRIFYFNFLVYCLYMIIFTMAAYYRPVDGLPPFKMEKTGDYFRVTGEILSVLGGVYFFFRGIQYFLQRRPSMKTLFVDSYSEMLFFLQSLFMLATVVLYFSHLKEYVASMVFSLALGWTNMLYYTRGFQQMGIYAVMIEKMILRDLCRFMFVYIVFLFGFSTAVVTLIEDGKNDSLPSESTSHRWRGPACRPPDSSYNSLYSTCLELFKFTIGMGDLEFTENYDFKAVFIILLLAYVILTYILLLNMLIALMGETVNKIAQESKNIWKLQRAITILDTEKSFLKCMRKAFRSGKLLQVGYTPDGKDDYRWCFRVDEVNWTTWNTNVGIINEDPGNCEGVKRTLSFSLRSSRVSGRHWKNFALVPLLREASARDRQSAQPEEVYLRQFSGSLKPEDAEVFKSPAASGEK

O=C(Nc1cccc(C(F)(F)F)c1)Nc1ccc([N+](=O)[O-])cc1Cl
Ki: 2570 nM
